Measured values taken from patent US5698547A, “Cephalosporin antibiotics” (Microcide Pharmaceuticals, Inc., priority 1995, dated 1997).
Where a name gives a salt, the structure may show the parent alone. Read-outs that look alike come from different tables or passages of the source.

Assays:
[1] = system: S. aureus Col (Meth^R) (lac^-); experiment: MIC by agar dilution, S. aureus Col (Meth^R) (lac^-); format: cell-based; settings: for MIC: Staphylococcus aureus, agar dilution, S. aureus Col (Meth^R) (lac^-), read-out: MIC
Method in brief: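 Log-phase isolates were spot-inoculated at about 10^4 cfu onto Mueller-Hinton agar carrying duplicate two-fold compound levels, 128 μg/mL to ≤0.25 μg/mL, following NCCLS (1991). Plates were read after 16-20 h at 35°-36° C. The lowest growth-inhibiting concentration gave the MIC (μg/ml).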

S. haemolyticus (Meth^R) = experiment: MIC by agar dilution, S. haemolyticus (Meth^R); format: cell-based; settings: Staphylococcus haemolyticus, read-out: MIC
Procedure: (§1) The compounds of the invention were evaluated against several β-lactamresistant bacteria strains by determining the minimum inhibitory concentration (MIC, μg/ml) of each compound with respect to each strain. The MIC, the lowest concentration of antibiotic which inhibits growth of the test organism, was determined by the agar dilution method.
(§2) To determine the MIC for bacterial isolates, the test compound was incorporated in a series of two-fold dilutions into liquified Mueller-Hinton agar. Upon solidification, a number of different bacterial strains were spot inoculated with a replicating device onto the agar surface. […] The procedures used in these studies have been standardized by the National Committee for Clinical Laboratory Standards (NCCLS), as per the NCCLS publication entitled METHODS FOR DILUTION ANTIMICROBIAL SUSCEPTIBILITY TESTS (1991), which is incorporated herein by reference.
(§3) Aliquots of antimicrobial agents were prepared in phosphate buffered saline (PBS) at pH 7.2. Tween 20 or DMSO was used as a solubilizing vehicle as needed. Standard methods of vortexing, sonicating and gentle heat were used to facilitate solubilizing the test agent. Typically, the concentration of the stock solution was 10× that of the highest drug concentration tested. A 1.28 mg/mL stock solution was used with a subsequent highest working concentration of 128 μg/mL. Serial two-fold dilutions were done through ≤0.25 μg/mL. Each drug level was tested in duplicate. Two-fold drug dilutions were done in sterile 50 mL tubes with a final drug volume of 5 mL. Upon the addition of 45 mL of molten agar, a 10-fold dilution resulted. Two, 25 mL. plates were then poured into 15×150 mm square Petri plates with grids and allowed to harden.
(§4) A control plate with a reference drug, either cefotaxime, vancomycin or imipenem, was used as the positive growth control. Stock concentrations of reference antibiotics were prepared and frozen at -80° C. Upon preparation, the control plates were sealed and stored in the refrigerator for up to 1 week prior to use; however, imipenem control plates had to be prepared just prior to use. All test plates were used within 24 hours of preparation.
(§5) Satisfactory results were obtained where the inoculum contained about 10^4 colony forming units (cfu) ±0.5 logs. Starting with pure cultures of the test isolates on agar plates, a few isolated colonies were transferred to a tube of nutrient broth and allowed to grow 4-6 hours at 35°-36° C. to reach log-phase growth. Dropwise addition of the broth culture to PBS was done to match a 0.5 McFarland turbidity standard equal to 10^8 cfu/mL. This was further diluted ten-fold in PBS to reach a working inoculum concentration of 10^7 cfu/mL. When 1 μL of the working inoculum was applied to the agar surface a concentration of about 10^4 cfu per spot was obtained.
(§6) Disposable sterile 1 μL loops were used to inoculate test plates, with each isolate in a designated grid on the agar plate. An alternate method of inoculation involved the use of a replica plater, a device with 48 steel pins allowing the simultaneous inoculation of multiple isolates. After the spots had dried, the plates were incubated at 35°-36° C. for 16-20 hours. Endpoints were assessed as the minimum inhibitory concentration (MIC) of antimicrobial agent.

S. aureus ATCC 29213 = experiment: MIC by agar dilution, S. aureus ATCC 29213; format: cell-based; settings: Staphylococcus aureus, ATCC29213
Procedure: as §1, §2, §3, §4, §5, §6

P. aeruginosa ATCC 27853 = experiment: MIC by agar dilution, P. aeruginosa ATCC 27853; format: cell-based; settings: Pseudomonas aeruginosa, ATCC27853, read-out: MIC
Procedure: as §1, §2, §3, §4, §5, §6

E. faecalis ATCC 29212 = experiment: MIC by agar dilution, E. faecalis ATCC 29212; format: cell-based; settings: Enterococcus faecalis, ATCC29212, read-out: MIC
Procedure: as §1, §2, §3, §4, §5, §6

E. faecium ATCC 35667 = experiment: MIC by agar dilution, E. faecium ATCC 35667; format: cell-based; settings: Enterococcus faecium, ATCC35667, read-out: MIC
Procedure: as §1, §2, §3, §4, §5, §6

E. coli ATCC 25922 = experiment: MIC by agar dilution, E. coli ATCC 25922; format: cell-based; settings: Escherichia coli, ATCC25922, read-out: MIC
Procedure: as §1, §2, §3, §4, §5, §6

[2] = system: S. aureus Col8A (Meth^S) (lac^-); experiment: MIC by agar dilution, S. aureus Col8A (Meth^S) (lac^-); format: cell-based; settings: Staphylococcus aureus; agar dilution; S. aureus Col8A (Meth^S) (lac^-); read-out: MIC
Procedure: as §1, §2, §3, §4, §5, §6
The novel agents of this invention are notable for their enhanced activity against S. aureus Col and Enterococci (E. faecium and E. faecalis). The S. aureus Col strain is a high-level PBP2a producer, whereas S. aureus Col 8A, its isogenic partner, lacks PBP2a. […] Thus, the compounds of the present invention are effective against PBP2a-producing bacteria.

[3] = system: methicillin-susceptible S. aureus strain ATCC 13709; experiment: murine model for lethal bacteremic peritonitis; format: in vivo, female Swiss-Webster mice; settings: 72 h, subcutaneous; for ED50: Staphylococcus aureus, ATCC13709, sc, two equal doses, S. aureus ATCC 13709 IP challenge, read-out: ED50
Method in brief: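 Female Swiss-Webster mice challenged IP with an LD100 titer of bacteria in 7% hog gastric mucin; groups of 10 treated SC with twofold drug increments (0.01–512 mg/kg) as two equal doses at challenge and 2 h later. Survival followed for 72 h; PD50 (total mg/kg) calculated by probit method.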

[4] = system: S. aureus 76 (Meth^R) (lac^+); experiment: MIC by agar dilution, S. aureus 76 (Meth^R) (lac^+); format: cell-based; settings: Staphylococcus aureus, read-out: MIC
Procedure: as §1, §2, §3, §4, §5, §6

[5] = system: Enterococci (E. faecium and E. faecalis); experiment: In vitro antibacterial evaluation, Enterococci; format: cell-based; settings: in words
Procedure: as §1, §2, §3
A control plate with a reference drug, either cefotaxime, vancomycin or imipenem, was used as the positive growth control. […]
Disposable sterile 1 μL loops were used to inoculate test plates, with each isolate in a designated grid on the agar plate. […] Endpoints were assessed as the minimum inhibitory concentration (MIC) of antimicrobial agent.

[6] = agar dilution, S. aureus ATCC 29213, read-out: MIC

Row | SMILES | MIC [1] [µg/mL] | MIC (S. haemolyticus (Meth^R)) [µg/mL] | MIC (S. aureus ATCC 29213; [6]) [µg/mL] | MIC (P. aeruginosa ATCC 27853) [µg/mL] | MIC (E. faecalis ATCC 29212) [µg/mL] | MIC (E. faecium ATCC 35667) [µg/mL] | MIC (E. coli ATCC 25922) [µg/mL] | MIC [2] [µg/mL] | ED50 [3] [mg/kg] | Mortality ([3]; dose 0.1562 mg/kg) | Mortality ([3]; dose 0.3125 mg/kg) | Mortality ([3]; dose 0.625 mg/kg) | Mortality ([3]; dose 1.25 mg/kg) | Mortality ([3]; dose 2.5 mg/kg) | MIC [4] [µg/mL] | also measured
1 | N=C(N)SCc1ccc(SC2=C(C(=O)O)N3C(=O)[C@@H](NC(=O)/C(=N\O)c4csc(N)n4)[C@H]3SC2)c(CSC(=N)N)c1 [Cmpd 139, (7R)-7-[(Z)-2-(Aminothiazol-4-yl)-2-(hydroxyimino)acetamido]-3-[2,4-(bis)isothiouroniummethylphenylthio]-3-cephem-4-carboxylate, trifluoroacetic acid salt] | 4 | 4 | 0.25 | > 32 | 0.125 | 0.5 | 1 | 0.25 | 0.28 | 4/10 | 8/10 | 4/10 | 0/10 | 1/10 | 4 | –
2 | N=C(N)SCCSCC(=O)N[C@@H]1C(=O)N2C(C(=O)O)=C(Sc3ccc(CSC(=N)N)cc3CSC(=N)N)CS[C@H]12 [Cmpd 142, (7R)-7-[((2-(isothiouronium)ethylthio)acetyl)amino]-3-[2,4-(bis)isothiouroniummethylphenylthio]-3-cephem-4-carboxylate, trifluoroacetic acid salt] | 4 | 8 | 0.25 | > 32 | 1 | 0.5 | – | 0.25 | < 0.156 | 3/10 | 1/10 | 0/10 | 0/10 | 0/10 | 8 | –
3 | O=C(Cc1ccccc1)N[C@@H]1C(=O)N2C(C(=O)O)=C(SCc3ccc(-c4ccccc4)cc3)CS[C@H]12 [Cmpd 12, (7R)-7-[(Phenylacetyl)amino]-3-(4-biphenylmethylthio)-3-cephem-4-carboxylic acid] | > 32 | – | – | – | – | – | – | – | – | – | – | – | – | – | – | activity against S. aureus Col ([1]; in words, PBP2a producer): lacking activity; activity against Enterococci [5]: potent activity
4 | CSCC(=O)N[C@@H]1C(=O)N2C(C(=O)O)=C(Sc3ccc(CSC(=N)N)cc3CSC(=N)N)CS[C@H]12 [Cmpd 140, (7R)-7-[(methylthioacetyl)amino]-3-[2,4-(bis)isothiouroniummethylphenylthio]-3-cephem-4-carboxylate, trifluoroacetic acid salt] | 2 | 8 | 0.125 | > 32 | 1 | 1 | > 32 | ≤ 0.06 | < 0.156 | 0/10 | 1/10 | 2/10 | 0/10 | 0/10 | 8 | –
5 | N=C(N)NCCSCC(=O)N[C@@H]1C(=O)N2C(C(=O)O)=C(Sc3ccc(CSC(=N)N)cc3CSC(=N)N)CS[C@H]12 [Cmpd 141, (7R)-7-[((2-guanidinoethylthio)acetyl)amino]-3-[2,4-(bis)isothiouroniummethylphenylthio]-3-cephem-4-carboxylate, trifluoroacetic acid salt] | 2 | 8 | 0.25 | > 32 | 1 | 0.5 | 4 | 0.25 | < 0.156 | 3/10 | 3/10 | 2/10 | 1/10 | 1/10 | 8 | –
6 | N=C(N)SCc1ccc(SC2=C(C(=O)O)N3C(=O)[C@@H](NC(=O)Cc4ccccc4)[C@H]3SC2)c(CSC(=N)N)c1 [Cmpd 138, (7R)-7-[(phenylacetyl)amino]-3-[2,4-(bis) (isothiouroniummethyl)phenylthio]-3-cephem-4-carboxylate, trifluoroacetic acid salt] | 2 | 8 | 0.125 | > 32 | 0.5 | 0.5 | 32 | ≤ 0.06 | 0.075 | 0/10 | 0/10 | – | – | – | 8 | Mortality ([3]; dose 0.0195 mg/kg): 9/10; Mortality ([3]; dose 0.0391 mg/kg): 10/10; Mortality ([3]; dose 0.0781 mg/kg): 6/10
7 | N=C(N)SCCSCC(=O)N[C@@H]1C(=O)N2C(C(=O)O)=C(Sc3ccccc3CSC(=N)N)CS[C@H]12 [Cmpd 143, (7R)-7-[((2-(isothiouronium)ethylthio)acetyl)amino]-3-[2-(isothiouroniummethyl)phenylthio]-3-cephem-4-carboxylate, trifluoroacetic acid salt] | 8 | 16 | – | > 32 | 0.5 | 0.5 | 8 | 0.125 | 0.34 | 9/10 | 6/10 | 2/10 | – | – | 16 | MIC (S. aureus ATCC 29213): 0.125 µg/mL; Mortality ([3]; dose 0.0391 mg/kg): 9/10; Mortality ([3]; dose 0.0781 mg/kg): 8/10
